Laboratory results taken from patent US20110294794A1, “TREATMENT OF PROTEINOPATHIES USING A FARNESYL TRANSFERASE INHIBITOR” (Link Medicine Corporation, priority 2008, published 2011).
Entries after “also recorded” stand apart in the source; their conditions may differ.

How the values were obtained:
Format in all cases: in vivo, mouse
[1] = test system: TAU; experiment: TAU441 transgenic mice, TAU immunoreactivity (AT180, HT7) in the amygdala; conditions: 0.09 mg/kg once every 24 hours, three months
Method: (§1) Animals and treatments: Male and female human WT alpha-synuclein over-expressing transgenic mice^32 at 6 months of age were given vehicle (10% beta-cyclodextrin) or LNK-754-TS (0.09, 0.9 and 9 mg/kg) per oral gavage twice daily for 3 months or animals at 7 months of age were given vehicle (2.5% beta-cyclodextrin) or LNK-754-TS (2 mg/kg) once every three days for 3 months. Male and female TAU transgenic mice expressing TAU441 bearing the missense mutations V337M^50 and R406W under the control of the murine Thy-1 promoter with a CB6xC57BL/6 background were 5 months old at the time when the oral treatment for three months with LNK-754-TS (0.9 and 0.09 mg/kg) as well as vehicle (2.5% beta-cyclodextrin) was started. Female human APP/PS1 (APP (London V7171)/PS1(A246E)) over-expressing transgenic mice were treated with LNK-754-TS (0.9 mg/kg) or vehicle (2.5% beta-cyclodextrin) for 2 months or 12 days.
Immunohistochemistry and quantification of stained cells: For evaluation of α-synuclein immunoreactivity (IR), 5 sagittal cryo-cut sections (10 μm slice thickness) from five different layers were used for counting of IR cells in the cortex and hippocampus. […] IR positive cells were quantified using specialized image analysis software (Image Pro Plus, version 4.5.1.29). […] Images were evaluated with ImageProPlus (version 6.2) image analysis software. For APP/PS1 transgenic animals sagittal hemisections (40 μm) were collected and processed for Aβ immunohistochemistry using an 6E10 antibody, Thioflavin-S staining Primary antibodies were detected by the ABC method. […]
This study was designed to evaluate the effects of a treatment with LNK-754-TS dosed at 0.09 mg per kg on behavior, TAU and TAU-pT231 levels, and brain morphology of TAU441 Tg mice. Histological evaluations were performed to quantitatively evaluate TAU pathology. TAU depositions were determined using the monoclonal TAU-antibodies AT180 and HT7. […]

[2] = Pharmacokinetics of LNK-754-TS in mice, oral administration; conditions: 9 mg/kg, 20% beta-cyclodextrin
Source text: In the experimental data represented in Table 2A, a different method of drug delivery is used (oral) than in the experiment represented in FIG. 3. The best way to compare the relative coverage of the two delivery methods (oral and continuous infusion) is by comparing area-under-the-curve (AUC) values. We can compare the calculated AUC values for the continuous infusion oncology study presented in FIG. 3 and the AUC values associated with the synuclein model doses in the table. […] The AUCs of orally dosed LNK-754-TS at 0.9 mg/kg and at 0.09 mg/kg QD are 34.6 and […], respectively.
The pharmacokinetic profiles of LNK-754-TS and Zarnestra® were analyzed using methods known in the art. The results are shown in FIGS. 13-14 and the tables below.

[3] = test system: APP/PS1 transgenic mice; experiment: Morris water maze in APP/PS1 transgenic mice; conditions: 0.9 mg/kg once every 24 hours
Method: as §1
Morris water maze (MWM) analysis of cognitive performance: In APP/PS1 transgenic animals, swimming behavior in a Morris Water Maze was videotaped and analyzed (Ethovision, Noldus, Wageningen, Netherlands). For mice, a place navigation test was used to locate the hidden platform in five blocks of three trials over three consecutive days. […] The time each mouse needed for location of the platform was measured. […] The time and path length each rat needed to locate the platform was measured. […]

C#Cc1cccc(-c2cc(=O)n(C)c3ccc([C@](O)(c4ccc(Cl)cc4)c4cncn4C)cc23)c1 [LNK-754-TS, (R)-6-[(4-chlorophenyl)-hydroxyl-(1-methyl-1-H-imidazol-5-yl)-methyl]-4-(3-ethynylphenyl)-1-methyl-2-(1H)-quinonlinone (2S,3S)-dihydroxybutanedioate]
number of AT180 immunoreactive (affected) cells in the amygdala [1]: comparable to those of baseline animals
phosphorylated Tau (AT180) immunoreactivity in the amygdala vs. vehicle [1]: significantly decreased; also recorded: significant reduction; also recorded: significantly reduced
total Tau (HT7) immunoreactivity in the amygdala vs. vehicle [1]: not significantly reduced; also recorded: did not change
Cmax ([2]; BID day 1): 1.385 µg/mL
Cmax ([2]; BID day 5): 1.485 µg/mL
cognitive performance in Morris water maze vs. vehicle ([3]; 12 days): significant cognitive improvement
cognitive performance in Morris water maze vs. vehicle ([3]; two months): performed significantly better; also recorded: significant cognitive improvement
